Experiment [1] concerns the target T1, N-formylated peptide receptor on U937 cells (Homo sapiens, UniProt P21462).
T1 sequence (P21462 1-350): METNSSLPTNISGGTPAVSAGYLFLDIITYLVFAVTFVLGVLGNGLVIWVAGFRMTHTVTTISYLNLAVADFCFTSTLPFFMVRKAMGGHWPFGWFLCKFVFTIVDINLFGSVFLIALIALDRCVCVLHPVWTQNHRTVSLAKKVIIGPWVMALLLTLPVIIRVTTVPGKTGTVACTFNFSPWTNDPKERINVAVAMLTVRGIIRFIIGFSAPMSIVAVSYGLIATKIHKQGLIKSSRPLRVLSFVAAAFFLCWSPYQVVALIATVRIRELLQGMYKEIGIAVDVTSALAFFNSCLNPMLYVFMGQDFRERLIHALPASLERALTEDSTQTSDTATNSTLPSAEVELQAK
Briefly: fMet-Leu-[3H]Phe-binding assay on U937 cells. The following applies: U937 cells incubated with cytochalasin B.

In experiment [2] the test system is human peripheral blood monocytes. The settings on record: ref M. C. Pike and R. Snyderman. Unpublished observation; cited from earlier work.
The test system of another experiment is U937 cells. Briefly: Chemotaxis of U937 cells, modified Boyden chambers. The experiment is classed as cell-based, human. The settings on record: U937 cells cultured 48 h with lymphokines; Fig. 4.

As for `C=C1[C@@H](C)[C@H]2[C@H](Cc3ccccc3)NC(=O)[C@]23OC(=O)/C=C/[C@H](O)CCC[C@@H](C)C/C=C/[C@H]3[C@@H]1O` [cytochalasin B], the “effect on amount of fMet-Leu-[3H]Phe bound” value in experiment [1] is “did not affect”.
For the compound “N-formyl-norleucyl-leucyl-phenylalanine [fNle-Leu-Phe]”, in experiment [2], the “potency for human monocyte chemotaxis relative to fMet-Leu-Phe” value is “less than that of fMet-Leu-Phe”. For the same compound, the relative chemotactic potency result with U937 cells was “approximately equipotent”.
“fMet-Met-Met [N-formyl-methionyl-methionyl-methionine]”: the “potency for human monocyte chemotaxis relative to fMet-Leu-Phe” value in experiment [2] is recorded as “less than that of fMet-Leu-Phe”. The relative chemotactic potency result in the experiment with U937 cells is listed as “approximately equipotent”.
